pKi: −log10 of the molar value.
What was measured:
[1] = target: human vasopressin V1b receptor (Homo sapiens (Human), UniProt P47901); assay: Vasopressin V1b receptor binding assay; settings: membranes from CHO-K1 cells, displacement of 3H-AVP
Description: The test substances were dissolved in a concentration of 5 mM in 100% DMSO and further diluted to 5×10^−4 M to 5×10^−9 M. These serial DMSO predilutions were diluted 1:10 with assay buffer. The substance concentration was further diluted 1:5 in the assay mixture resulting in 2% DMSO in the mixture. All dilutions were performed in a Biomek NX automation workstation (Beckman)
The membrane pellet was again homogenized and centrifuged as described and subsequently taken up in 50 mM Tris-HCl, pH 7.4, homogenized and stored in aliquots frozen in liquid nitrogen at −190° C.
(§1) The incubation buffer was: 50 mM Tris, 10 mM MgCl2, 0.1% BSA, pH 7.4.
All determinations were carried out as duplicate determinations. […] The liquid scintillation measurement took place in a Microbeta TriLux 12 (Wallac). Analysis:
(§2) The binding parameters were calculated by nonlinear regression in SAS.

[2] = target: human vasopressin V1a receptor (Homo sapiens (Human), UniProt P37288); assay: Vasopressin V1a receptor binding assay; settings: selectivity quotient, human V1a vs human V1b receptor
Sequence of human vasopressin V1a receptor (P37288 whole entry): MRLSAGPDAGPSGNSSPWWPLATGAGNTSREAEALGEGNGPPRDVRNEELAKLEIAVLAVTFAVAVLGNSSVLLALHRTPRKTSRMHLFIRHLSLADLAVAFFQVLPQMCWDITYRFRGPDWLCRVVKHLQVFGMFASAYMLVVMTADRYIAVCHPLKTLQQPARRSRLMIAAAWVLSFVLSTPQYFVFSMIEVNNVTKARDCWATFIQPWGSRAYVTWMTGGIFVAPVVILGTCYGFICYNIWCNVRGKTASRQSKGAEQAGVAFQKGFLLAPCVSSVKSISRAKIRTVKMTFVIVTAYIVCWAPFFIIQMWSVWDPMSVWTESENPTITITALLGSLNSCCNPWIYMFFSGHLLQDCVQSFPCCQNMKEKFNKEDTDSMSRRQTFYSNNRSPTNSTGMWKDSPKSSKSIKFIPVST
Description: The test substances were dissolved in a concentration of 5 mM M in DMSO. Further dilution of these DMSO solutions took place as described for V1b.
The membrane pellet was again homogenized in a High-Pressure-Homogenizer, Polytec 50K at 1500 PSI (Heinemann, Germany) and subsequently taken up in 50 mM Tris-HCl, pH 7.4, homogenized and stored in aliquots frozen in liquid nitrogen at −190° C.
as §1
Duplicate determinations were carried out.
After incubation (60 minutes at room temperature), the samples were processed as described for V1b.
as §2

Sequence of human vasopressin V1b receptor (P47901 whole entry): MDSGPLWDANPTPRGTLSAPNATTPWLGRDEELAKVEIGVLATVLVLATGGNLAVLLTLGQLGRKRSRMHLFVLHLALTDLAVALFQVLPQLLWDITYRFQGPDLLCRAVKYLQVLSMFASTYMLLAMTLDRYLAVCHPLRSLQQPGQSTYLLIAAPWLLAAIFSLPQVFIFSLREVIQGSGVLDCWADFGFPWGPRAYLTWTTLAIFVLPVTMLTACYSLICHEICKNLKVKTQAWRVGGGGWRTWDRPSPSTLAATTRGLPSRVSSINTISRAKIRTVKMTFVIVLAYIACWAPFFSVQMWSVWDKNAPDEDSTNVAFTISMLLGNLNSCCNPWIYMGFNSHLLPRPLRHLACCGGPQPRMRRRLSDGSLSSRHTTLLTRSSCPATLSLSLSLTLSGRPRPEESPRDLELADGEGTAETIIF

Structure (SMILES)	pKi [1]	Ki(h-V1a)/ Ki(h-V1b) [2]
COc1ccc(S(=O)(=O)N2C(=O)C(c3ccccc3OC)(N3CC4(CN(C5CCN(C6COC6)CC5)C4)C3)c3cc(C#N)ccc32)nc1 (single isomer, unassigned; (+)) [Example 23, (+)-3-(2-methoxyphenyl)-1-[(5-methoxy-2-pyridyl)sulfonyl]-3-[2-[1-(oxetan-3-yl)-4-piperidyl]-2,6-diazaspiro[3.3]heptan-6-yl]-2-oxo-indoline-5-carbonitrile]	8.00 to 9.00	+ (10-<25)
CCOc1ccc(OC)cc1C1(N2CC3(CN(c4ccnc(C)c4)C3)C2)C(=O)N(S(=O)(=O)c2ccc(OC)cc2OC)c2ccc(C#N)cc21 (single isomer, unassigned; (+)) [Example 24, (+)-1-(2,4-dimethoxyphenyl)sulfonyl-3-(2-ethoxy-5-methoxy-phenyl)-3-[2-(2-methyl-4-pyridyl)-2,6-diazaspiro[3.3]heptan-6-yl]-2-oxo-indoline-5-carbonitrile]	7.00 to 8.00	+++ (>75)
CCOc1ccc(OC)cc1C1(N2CC3(CN(c4ccnc(C)c4)C3)C2)C(=O)N(S(=O)(=O)c2ccc(OC)cn2)c2ccc(C#N)cc21 (single isomer, unassigned; (+)) [Example 25, (+)-3-(2-ethoxy-5-methoxy-phenyl)-1-[(5-methoxy-2-pyridyl)sulfonyl]-3-[2-(2-methyl-4-pyridyl)-2,6-diazaspiro[3.3]heptan-6-yl]-2-oxo-indoline-5-carbonitrile]	> 9.00	+++ (>75)
CCOc1ccc(OC)cc1[C@]1(N2CC3(CN(C4CCN(C)CC4)C3)C2)C(=O)N(S(=O)(=O)c2ccc(OC)nc2)c2ccc(C#N)cc21 [Example 31, (3S)-3-(2-ethoxy-5-methoxy-phenyl)-1-[(6-methoxy-3-pyridyl)sulfonyl]-3-[2-(1-methyl-4-piperidyl)-2,6-diazaspiro[3.3]heptan-6-yl]-2-oxo-indoline-5-carbonitrile]	8.00 to 9.00	+ (10-<25)
CCOc1ccc(OC)cc1[C@]1(N2CC3(CN(C4CCN(C)CC4)C3)C2)C(=O)N(S(=O)(=O)c2ccccn2)c2ccc(C#N)cc21 [Example 33, (3S)-3-(2-ethoxy-5-methoxy-phenyl)-3-[2-(1-methyl-4-piperidyl)-2,6-diazaspiro[3.3]heptan-6-yl]-2-oxo-1-(2-pyridylsulfonyl)indoline-5-carbonitrile]	8.00 to 9.00	+++ (>75)
CCOc1ccc(OC)cc1[C@]1(N2CC3(CN(C4CCN(C)CC4)C3)C2)C(=O)N(S(=O)(=O)c2ccc(Cl)cn2)c2ccc(C#N)cc21 [Example 34, (3S)-1-[(5-chloro-2-pyridyl)sulfonyl]-3-(2-ethoxy-5-methoxy-phenyl)-3-[2-(1-methyl-4-piperidyl)-2,6-diazaspiro[3.3]heptan-6-yl]-2-oxo-indoline-5-carbonitrile]	> 9.00	+++ (>75)

Other lines, results leading:

pKi [1]	Ki(h-V1a)/ Ki(h-V1b) [2]	Structure (SMILES)
> 9.00	+++ (>75)	CCOc1ccc(OC)cc1C1(N2CC3(CC(N4CCN(C)CC4)C3)C2)C(=O)N(S(=O)(=O)c2ccc(OC)cn2)c2ccc(C#N)cc21 (single isomer, unassigned; (+)) [Example 17B, (+)-3-(2-ethoxy-5-methoxy-phenyl)-1-[(5-methoxy-2-pyridyl)sulfonyl]-3-[2-(4-methylpiperazin-1-yl)-6-azaspiro[3.3]heptan-6-yl]-2-oxo-indoline-5-carbonitrile]
> 9.00	+ (10-<25)	COc1ccc(S(=O)(=O)N2C(=O)C(c3ccccc3OC)(N3CC4(CN(C5CCN(C)CC5)C4)C3)c3cc(C#N)ccc32)nc1 (single isomer, unassigned; (+)) [Example 18A, (+)-3-(2-methoxyphenyl)-1-[(5-methoxy-2-pyridyl)sulfonyl]-3-[2-(1-methyl-4-piperidyl)-2,6-diazaspiro[3.3]heptan-6-yl]-2-oxo-indoline-5-carbonitrile]
7.00 to 8.00	+++ (>75)	CCOc1ccc(OC)cc1C1(N2CC3(CN(C4CCN(C)CC4)C3)C2)C(=O)N(S(=O)(=O)c2ccc(OC)cn2)c2ccc(C#N)cc21 (single isomer, unassigned; (-)) [Example 1B, (−)-3-(2-ethoxy-5-methoxy-phenyl)-1-[(5-methoxy-2-pyridyl)sulfonyl]-3-[2-(1-methyl-4-piperidyl)-2,6-diazaspiro[3.3]heptan-6-yl]-2-oxo-indoline-5-carbonitrile]
